Measured values published in patent publication US11667809B2, “Adhesion promoters and compositions for containers and other articles” (SWIMC LLC, priority 2017, dated 2023).
Where two headings read alike, the source gives them in different places.

Legend:
human estrogen receptor [1] = biological target: T1, human estrogen receptor (Homo sapiens, UniProt P03372)
T1 sequence (P03372 1-595): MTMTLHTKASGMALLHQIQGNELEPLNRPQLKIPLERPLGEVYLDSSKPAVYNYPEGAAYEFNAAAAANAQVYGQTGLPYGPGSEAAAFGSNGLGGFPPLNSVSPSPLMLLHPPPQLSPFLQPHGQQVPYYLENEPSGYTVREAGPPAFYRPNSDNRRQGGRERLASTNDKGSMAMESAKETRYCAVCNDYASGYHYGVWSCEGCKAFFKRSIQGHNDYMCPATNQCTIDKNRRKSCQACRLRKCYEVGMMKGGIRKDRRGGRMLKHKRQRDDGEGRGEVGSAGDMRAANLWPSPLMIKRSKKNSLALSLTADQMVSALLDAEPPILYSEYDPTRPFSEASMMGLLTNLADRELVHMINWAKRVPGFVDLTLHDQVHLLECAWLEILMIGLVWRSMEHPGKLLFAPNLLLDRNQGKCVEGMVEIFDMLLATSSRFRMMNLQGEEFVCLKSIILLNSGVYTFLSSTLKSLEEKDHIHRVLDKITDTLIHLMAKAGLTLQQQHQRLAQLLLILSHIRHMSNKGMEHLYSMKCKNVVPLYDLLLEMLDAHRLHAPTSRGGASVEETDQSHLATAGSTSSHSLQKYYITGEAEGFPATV
Text: (§1) The MCF-7 assay uses MCF-7, clone WS8, cells to measure whether and to what extent a substance induces cell proliferation via estrogen receptor (ER)-mediated pathways.

human estrogen receptor [2] = biological target: T1, human estrogen receptor; experiment: in vitro estrogenic activity assay correlated to the MCF-7 cell proliferation assay; settings: suitable in vitro assay whose results are directly correlated to the MCF-7 assay
Text: as §1

Row | SMILES | estrogenic activity (human estrogen receptor [1]) | estrogenic activity (human estrogen receptor [2])
1 | CC(C)(C)c1cc(O)c(C(C)(C)C)cc1O [2,5-di-t-butylhydroquinone] | do not exhibit appreciable estrogenic activity | –
2 | CCCC(c1cc(C(C)(C)C)c(O)cc1C)c1cc(C(C)(C)C)c(O)cc1C [4,4′butylidenebis(2-t-butyl-5-methylphenol)] | – | do not exhibit appreciable estrogenic activity
3 | CC(C)(C)c1cc(Cc2cc(C(C)(C)C)c(O)c(C(C)(C)C)c2)cc(C(C)(C)C)c1O [4,4′-methylenebis(2,6-di-t-butylphenol)] | do not exhibit appreciable estrogenic activity | –
4 | Cc1cc(Cc2cc(C)c(O)c(C)c2)cc(C)c1O [4,4′-methylenebis(2,6-dimethylphenol)] | – | do not exhibit appreciable estrogenic activity
5 | Cc1cc(Cc2cc(C)cc(C(C)(C)C)c2O)c(O)c(C(C)(C)C)c1 [2,2′-methylenebis(4-methyl-6-t-butylphenol)] | do not exhibit appreciable estrogenic activity | –
